{"source": "patent US9618507B2", "about": "“Methods of treating rheumatoid arthritis” (Betanien Hospital, priority 2014, dated 2017)", "assay_type_in_all_cases": "in vivo, human", "key": {"[1]": {"tested_on": "gonadotropins, oestradiol, testosterone, cortisol", "test": "Example 2: hormones (gonadotropins, oestradiol, testosterone, cortisol) in high gonadotropin patients", "description": "(§1) Non-competitive immunofluorometric assays were used for the quantitative determination of serum LH and FSH (Dissociation Enhanced Lanthanide Fluoroimmunoassay [DELFIA] kit, Turku, Finland). A competitive immunofluorometric assay was used for the determination of serum oestradiol (DELFIA kit, Turku, Finland). A competitive radioimmunoassay was used for the quantitative determination of serum testosterone (Orion Diagnostica. Espoo, Finland). A competitive Iuminoimmunoassay was used for the quantitative determination of serum cortisol (Immulite 2000, California, USA)."}, "[2]": {"tested_on": "LH, FSH, cortisol", "test": "Example 1: serum hormone assays (LH, FSH, cortisol)", "protocol": "(§2) Ethical committee approval was obtained. […] Safety and efficacy visits, with blood sampling, were between 0730 and 0930 h on days 1 (baseline), 2, 3, 4, 5 (visit 5a), 10, and 15. There was an additional visit (visit 5b) between 1930 and 2130 h when maximum GnRH suppression was anticipated.\nas §1"}, "[3]": {"tested_on": "RA patients", "test": "Example 1: randomized, double-blind, placebo-controlled study, disease activity (DAS28-CRP, ACR responses, core set measures)", "protocol": "In this randomized, double-blind, placebo-controlled, single-centre study, males and females aged ≧18 years with RA according to the 1987 revised American College of Rheumatology (ACR) criteria, and with a 28-joint Disease Activity Score based on C-reactive protein (DAS28-CRP)>3.2 were enrolled.\nas §2\nPredefined secondary end-points included the baseline adjusted between-group difference inTNF-α, ACR20/50/70 responses, European League Against Rheumatism (EULAR) responses, DAS28-CRP <2.6 and ≦3.2, and adverse events.\nMenstruating women could only enter the study in the early follicular phase of their menstrual cycle. The concomitant use of stable doses of disease-modifying anti-rheumatic drugs (DMARDs) for at least 8 weeks, stable prednisolone ≦7.5 mg daily for at least 4 weeks, and stable non-steroidal anti-inflammatory drugs (NSAIDs) for at least 2 weeks was allowed if these doses were continued throughout the study. Key exclusion criteria were as follows: pregnancy or breastfeeding females; corticosteroid injections within the trial or 4 weeks prior to screening; biological agents were not permitted during the trial or within 4 weeks prior to inclusion in the trial (with the exception of infliximab or adalimumab which were not permitted within 3 months prior to inclusion in the trial; and rituximab which was not permitted within 6 months prior to inclusion in the trial). A history of hormone-dependent cancers ever or non-hormone-dependent cancers within 5 years prior to screening: infections requiring intravenous antibiotic treatment within 30 days, or oral antibiotics within 14 days prior to enrolment; significant renal or hepatic impairment; and any treatment with hormone replacement therapy or oral contraception were also exclusion criteria.\nThe Newcombe hybrid score interval was used to estimate 95% confidence intervals (CI) for the difference between proportions (Fagerland M W, et al., Stat Methods Med Res 2011). No adjustments for multiple analyses were made, owing to the highly correlated variables. All clinical, biochemical, and safety data were analyzed by an intention-to-treat analysis. Only predefined endpoints are presented. The intention-to-treat population was predefined in the protocol as all randomized patients who received any injections of study drug. Missing values were <1% and could, as predefined, be imputed with the last observation carried forward. The assumptions of normality needed for analyses were approximately valid. The Spearman rank correlation coefficient (Spearman's rho) was used to estimate the association between pairs of continuous variables."}, "[4]": {"tested_on": "RA patients with high gonadotropin levels", "test": "Example 2: AGRA post hoc analyses in patients with high gonadotropin levels, disease activity (DAS28-CRP, ACR, EULAR)", "description": "Post hoc analyses is described herein.\nKey inclusion criteria for AGRA were males or females aged ≧18 years with RA that had been diagnosed on the basis of the American College of Rheumatology (ACR) 1987 revised criteria (Arnett F C, et al., Arthritis Rheum 1988; 31:315-24); with active, and moderate or severe disease defined as a Disease Activity Score for 28-joint counts based on C-reactive protein (Wells G, et al., Ann Rheum Dis 2009; 68:954-60) (DAS28-CRP) >3.2 and at least two of the following criteria: ≧6 painful joints, ≧3 swollen joints, ESR ≧20 mm/h, and a C-reactive protein ≧10 mg/L). Prednisolone ≦7.5 mg/day was permitted if stable for at least 4 weeks prior to baseline; NSAIDs were permitted if stable for at least 2 weeks prior to baseline; and disease-modifying anti-rheumatic drugs (DMARDs) were permitted if stable for at least 8 weeks prior to baseline. Tumour necrosis factor-α (TNF-α) inhibitor or other biological agents were not permitted during the trial or within 4 weeks prior to inclusion. Infliximab/adalimumab was not permitted at least 3 months prior to inclusion; Rituximab was not permitted at least 6 months prior to inclusion. Intramuscular, intra-articular or intravenous corticosteroids; any hormone replacement therapy; or oral contraception was not permitted during the trial or within 4 weeks prior to inclusion.\nIn these post hoc analyses, a subgroup of AGRA patients with high gonadotropin levels were examined. There is no established cut-off for high LH and/or FSH. Therefore, levels above the median were defined as high (e.g., LH>17.3 IU/L and FSH>34.6 IU/L).\nThe intention-to-treat population was predefined as all randomised patients who received any study-drug injections. Missing values were <1% and could, as predefined, be imputed with the last-observation-carried-forward. The assumptions of normality needed for analyses were approximately valid. All statistical tests were two-sided (α=0.05) and performed with Stata 12 and StatXact 9. Analyses were performed by an offsite statistician who received locked databases from blinded investigators and laboratories, and the allocation key from the offsite central office."}, "[5]": {"details": "high gonadotropin patients, by day 5, placebo 0%"}}, "note": "Like-named read-outs stand apart in the source and are kept apart here. Where a SMILES comes first, the peptide text is derived from it. [ ]: non-standard residue; d: D form. dPhe(4-Cl) = N[C@H](Cc1ccc(Cl)cc1)C(=O)O; d2Nal = N[C@H](Cc1ccc2ccccc2c1)C(=O)O; dCit = NC(=O)NCCC[C@@H](N)C(=O)O; d3Pal = N[C@H](Cc1cccnc1)C(=O)O"}
{"smiles": "CC(=O)N[C@H](Cc1ccc2ccccc2c1)C(=O)N[C@H](Cc1ccc(Cl)cc1)C(=O)N[C@H](Cc1cccnc1)C(=O)N[C@@H](CO)C(=O)N[C@@H](Cc1ccc(O)cc1)C(=O)N[C@H](CCCNC(N)=O)C(=O)N[C@@H](CC(C)C)C(=O)N[C@@H](CCCNC(=N)N)C(=O)N1CCC[C@H]1C(=O)N[C@H](C)C(N)=O", "note": "[cetrorelix] (Ac-[d2Nal][dPhe(4-Cl)][d3Pal]SY[dCit]LRP[dA]-NH2)", "values": [{"measurement": "Cortisol change compared with placebo (words)", "setting": "[1]", "value": "significantly decreased"}, {"measurement": "gonadotropins change compared to placebo", "setting": "[1]", "value": "significantly reduced"}, {"measurement": "oestradiol change compared to placebo", "setting": "[1]", "value": "significantly reduced"}, {"measurement": "testosterone change compared to placebo", "setting": "[1]", "value": "significantly reduced"}, {"measurement": "gonadotropin levels, onset", "setting": "[1]; by day 2", "value": "decreased"}, {"measurement": "Cortisol between-group difference", "setting": "[1]; by day 5, 95% CI 10.5 to 95.8, P=0.016", "value": 53.1, "unit": "nmol/L"}, {"measurement": "Cortisol change compared with placebo (words)", "setting": "[1]; listed as Cetrorelix", "value": "significantly reduced"}, {"measurement": "LH and FSH levels", "setting": "[2]; all patients allocated to cetrorelix, onset", "value": "reduced as early as day 2"}, {"measurement": "Cortisol changes between groups", "setting": "[2]; all patients, by day 5, p 0.80", "value": "not significantly different between groups"}, {"measurement": "DAS28-CRP between-group difference vs placebo", "setting": "[3]; all patients, baseline adjusted, day 5, 95% CI −0.04 to 0.57, p 0.091", "value": 0.26}, {"measurement": "patients achieving DAS28-CRP<2.6", "setting": "[3]; all patients, by day 5, placebo 0%", "value": 13, "unit": "%"}, {"measurement": "patients achieving ACR20 responses", "setting": "[3]; all patients, by day 5, placebo 18%", "value": 40, "unit": "%"}, {"measurement": "DAS28-CRP reduction by day 5", "setting": "[3]; all patients, cetrorelix n=48, 5 mg/day s.c. days 1-2, 3 mg/day days 3-5, day 5", "value": 0.82}, {"measurement": "ACR50/70 responses compared with placebo", "setting": "[3]; all patients, day 5, FIG. 1A", "value": "More patients reached ACR50/70 responses"}, {"measurement": "core set measures of disease activity compared with placebo", "setting": "[3]; all patients, except physician global assessment", "value": "non-significant greater improvements"}, {"measurement": "DAS28-CRP reduction, prednisolone users (n 24) vs non-users (n 24)", "setting": "[3]; cetrorelix group, p 0.40", "value": "did not differ"}, {"measurement": "reductions of DAS28-CRP and cytokines compared to placebo, high gonadotropin groups (N=53) versus the rest of the AGRA population (N=46)", "setting": "[4]; FIG. 5B-E", "value": "greater reductions"}, {"measurement": "patients achieving DAS28-CRP<2.6", "setting": "[4]; [5]", "value": 15, "unit": "%"}, {"measurement": "patients achieving DAS28-CRP≦3.2", "setting": "[4]; [5]", "value": 22, "unit": "%"}, {"measurement": "patients achieving EULAR 'Good-Responses'", "setting": "[4]; [5]", "value": 19, "unit": "%"}, {"measurement": "patients achieving ACR20 responses", "setting": "[4]; high gonadotropin patients, by day 5, placebo 19%", "value": 44, "unit": "%"}, {"measurement": "DAS28-CRP change by day 5", "setting": "[4]; high gonadotropin patients, cetrorelix N=27, 95% CI −1.3 to −0.67, placebo −0.40", "value": "−1.0"}, {"measurement": "DAS28-CRP baseline-adjusted between-group difference", "setting": "[4]; high gonadotropin patients, day 5, 95% CI 0.13 to 0.93, P=0.010", "value": 0.53}, {"measurement": "ACR50 and ACR70 responses compared with placebo", "setting": "[4]; high gonadotropin patients, numbers too small for valid conclusions", "value": "More patients reached ACR50 and ACR70 responses"}, {"measurement": "DAS28-CRP reduction, prednisolone users (N=13) vs non-users (N=14)", "setting": "[4]; patients who received cetrorelix, P=0.73", "value": "similar"}]}
